Drawing on patent US7504416B2, “4-substituted quinolines as antitumor agents” (AstraZeneca AB, priority 2000, dated 2009), this text covers IC50 for one molecule.

Usually IC50 stands for the concentration needed to halve the response being measured. Lower therefore signals inhibition by little substance.

The assay deals with HT29 human colon tumour cells. Description: Cell proliferation assay. The class given is cell-based. The note with it: HT-29, 72 hours incubation. Here is the method:
Cell Proliferation Assays
Cells were seeded into multi-well plates at 20 000-40 000 cells/ml in growth medium containing 5% FCS and incubated overnight at 37° C. The compounds were prepared in fresh medium at an appropriate concentration and added to the wells containing the cells. These were then incubated for a further 72 hours. Cells were then either removed from the wells by incubating with trypsin/EDTA and counted using a Coulter counter, or treated with XTT/PMS in PBSA and optical densities read at 450 nm. […] For example, Compound No 3 gave an IC50 of 1.0 μM in HT29 human colon tumour cells.

Regarding `COc1cc2ncc(C#N)c(Nc3ccc(Oc4ccccc4OCC(=O)NCC(=O)N4CCN(C)CC4)cc3)c2cc1OC` [Compound 3], the IC50 is 1000 nM.
